Test results as given in article PMC9376891 (Nature Communications, 2022).
pKd: −log10 of the molar value.

Target: Rae1_31-368-Nup98_157-213 heterodimer (Rae1-Nup98 complex) (Homo sapiens, UniProt P52948+P78406)
Test: biochemical
Assay type: binding

Rae1_31-368-Nup98_157-213 heterodimer (Rae1-Nup98 complex), sequence (P78406 31-368 limits assumed): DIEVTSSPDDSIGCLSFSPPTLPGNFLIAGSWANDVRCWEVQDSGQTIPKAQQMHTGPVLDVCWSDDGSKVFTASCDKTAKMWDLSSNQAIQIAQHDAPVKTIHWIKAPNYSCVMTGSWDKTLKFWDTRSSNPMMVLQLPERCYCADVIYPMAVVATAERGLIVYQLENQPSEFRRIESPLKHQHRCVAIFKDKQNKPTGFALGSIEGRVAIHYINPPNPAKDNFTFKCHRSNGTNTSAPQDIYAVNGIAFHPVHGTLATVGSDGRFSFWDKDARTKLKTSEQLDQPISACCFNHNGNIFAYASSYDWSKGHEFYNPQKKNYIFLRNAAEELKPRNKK
Rae1_31-368-Nup98_157-213 heterodimer (Rae1-Nup98 complex), sequence (P52948 157-213 partner limits assumed): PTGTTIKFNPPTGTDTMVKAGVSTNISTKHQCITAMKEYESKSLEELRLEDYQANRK

SMILES: CSCC[C@H](NC(=O)[C@H](CCC(=O)O)NC(=O)[C@@H](N)CC(=O)O)C(=O)N[C@@H](CC(=O)O)C(=O)N[C@H](C(=O)N[C@@H](Cc1c[nH]cn1)C(=O)N[C@@H](CC(=O)O)C(=O)N1CCC[C@H]1C(=O)N[C@@H](CC(N)=O)C(=O)N[C@@H](CCC(N)=O)C(=O)N[C@@H](CC(C)C)C(=O)N[C@@H](CCCNC(=N)N)C(=O)N[C@@H](Cc1ccc(O)cc1)C(=O)O)[C@@H](C)O [VSV M NTE]
- pKd: 3.93
